From US8252290B2, “Herbal composition for treatment of insomnia and other related disorders and a method of preparing the same” (Vita Green Health Products Company Limited, priority 2008, dated 2012)
Counter-ions that a name gives are not always drawn.

Columns and labels:
Format in all cases: in vivo
[1] = test system: mice; assay: Elevated Plus Maze Test; settings: 2 mg/kg oral
Method: (§1) The following three tests on mice were conducted to investigate the anti-depressant and anti-anxiety activities of the herbal composition of the present invention.
(§2) In all these tests, the test item was the herbal composition as described in Table 2 in the form of a powder. The reference item was Imipramine hydrochloride manufactured by Sigma-Aldrich, USA (for forced swimming and tail suspension tests), and Diazepam tablets supplied by Tianjin Lisheng Pharmaceutical Co. Ltd, China (for elevated plus maze test). Male mice weighing 18-22 g at the start of the study were obtained from the Guangdong Medical Laboratory Animal Center, China.
(§3) At the beginning of each test, the test item was administrated at three dose levels of 69, 208, and 624 mg per kg of mouse by oral route (gastric gavage). For the Forced Swimming Test and Tail Suspension Test, Imipramine was administrated at the dose level of 20 mg per kg of mouse by oral route (gastric gavage), whereas Diazepam was administrated at the dose level of 2 mg per kg of mouse by oral route (gastric gavage). The Control group only received physiological saline orally by gastric gavage.
In this common test for assessing anxiety, the mouse is initially placed in the center of an elevated plus-shaped maze consisting of 4 arms (2 open arms & 2 enclosed arms), with its head facing one of the two open arms. The basic measure is to determine the unconditioned response of the tested mouse to a potentially dangerous environment and the preference of the tested mouse for dark, enclosed places over bright places, and exposed places. Typically, the tested mice would avoid entering into open arms due to anxiety, and mice administrated with anxiolytic […] treatments would have decreased aversion to heights and open spaces.
In this test, two batches of mice were used and in each batch, the mice were allotted at random to five groups, each consisting of ten animals.
The ratio of open arm entry is the frequency of the times the mice entering the open arms to the total frequency of entry into both open and enclosed arms (in percentages). Likewise, the ratio of time spent in open arms is the proportion of time spent by the mice in the open arms to the total times spent in both open and enclosed arms (in percentages).

[2] = test system: mice; assay: Tail Suspension Test; settings: 20 mg/kg oral
Method: as §1, §2, §3
When a mouse is suspended by its tail, its basic instinct first drives him to struggle, but this inescapable stress will eventually force it to develop an immobile posture. […]

[3] = test system: mice; assay: Forced Swimming Test; settings: 20 mg/kg oral
Source text: After an initial period of vigorous activity, the mice adopt a characteristic immobile posture which is readily identifiable.

## CN1C(=O)CN=C(c2ccccc2)c2cc(Cl)ccc21 [Diazepam]
[1]; First Batch, Control 16.2 ± 4.61
  Head dipping: 20.67 ± 10.42 times
[1]; First Batch, p<0.01 vs Control 31.94 ± 10.82
  Ratio of time spent in open arms: 50.51 ± 10.58 %
[1]; First Batch, p<0.01 vs Control 36.16 ± 6.13
  Ratio of open arms entry: 51.27 ± 10.08 %
[1]; Second Batch, p<0.01 vs Control 14.0 ± 4.64
  Head dipping: 21.5 ± 6.15 times
[1]; Second Batch, p<0.01 vs Control 29.82 ± 8.88
  Ratio of time spent in open arms: 47.52 ± 12.35 %
[1]; Second Batch, p<0.01 vs Control 33.66 ± 7.95
  Ratio of open arms entry: 52.48 ± 9.97 %

## CN(C)CCCN1c2ccccc2CCc2ccccc21 [Imipramine, Imipramine hydrochloride]
[2]; First Batch, p<0.01 vs Control 115.89 ± 39.27
  Time of immobility: 60.08 ± 16.67 s
[2]; Second Batch, p<0.01 vs Control 100.76 ± 33.49
  Time of immobility: 52.66 ± 17.05 s
[3]; First Batch, p<0.01 vs Control 93.19 ± 31.07
  Time of immobility: 43.92 ± 17.63 s
[3]; Second Batch, p<0.01 vs Control 110.61 ± 28.03
  Time of immobility: 59.90 ± 17.40 s
